One compound from patent US11655244B2, “Carbazole compounds and methods of use thereof” (GSNO Therapeutics, Inc, priority 2017, dated 2023) can be followed below.

For assay [1], the system named is IL-6. In words: LPS/cytokine assay (mouse inflammation assay), IL-6. In kind it is in vivo, CD-1 male mice. On the procedure:
Table 2b also includes additional biological data of compounds described herein. The LPS/cytokine Assay was carried out in CD-1 male mice. The assay measured the level of various cytokines, including IL-6, IL-17, and IL-23, after induction by bacterial liposaccharide (LPS). Compounds were dosed by IP or IV routes of administration at varying times before and after LPS and the cytokine concentrations were measured at varying times, typically 6 hrs, after LPS by standard methods using ELISA kits.
BIOLOGICAL TESTING: Compounds 10 and 17 from Table 1 were tested in a mouse inflammation assay. Briefly, CD-1 mice were dosed with compound, 12 hrs before injecting mice I.P. with the potent cytokine inducer, bacterial lipopolysaccharide (LPS). The mice were euthanized 6 hrs after the LPS was injected and their serum prepared by standard methods. The concentration of IL-6 in the serum of each experimental animal was measured using an IL-6 ELISA kit from Enzo. The compounds tested were active.
This LPS/cytokine assay was carried out in healthy mice and measured the level of cytokine IL-6, IL-17, and 23 induction by LPS. Compounds are dosed (either orally (“p.o.”) or intravenously (“i.v.”) at varying times before and after LPS, and the cytokines are measured at varying times after LPS. The effect of the tested compounds (Table 5) on IL-6 release is shown in FIG. 7. The effect of the tested compounds (Table 6) on IL-17 an IL-23 release is shown in FIG. 11 and FIG. 12, respectively.

The test system of assay [2] is db/db mice. In words: Insulin and glucose tolerance tests, survival and 8-isoprostane in db/db diabetic mice. It counts as in vivo. On the procedure:
Compound 17 was studied in 6 week intra-gastric insulin and glucose tolerance tests in db/db mice dosed orally with Compound 17 at 10 mg/kg for 6 weeks qd. The male db/db mice were started on study at 6 weeks of age and were given a 60% high fat diet to increase the diabetic phenotype.
Vascular reactivity: Db/db mouse aorta segments were equilibrated in oxygenated PBS (95% O2 and 5% CO2) at 37° C. Following equilibration, 1 μM phenylephrine was added to each ring for submaximal contraction. After stabilization, Compound 17 was added to the rings and the effect on the muscle tone of the aorta segments was monitored with a tensometer as dose-responses from 10^-8 M to 10^-5 M for acetylcholine (“Ach”) and A23187 (5-(methylamino)-2-({(2R,3R,6S,8S,9R,11R)-3,9,11-trimethyl-8-[(1S)-1-methyl-2-oxo-2-(1H-pyrrol-2-yl)ethyl]-1,7-dioxaspiro[5.5]undec-2-yl}methyl)-1,3-benzoxazole-4-carboxylic). 8-Isoprostane was measured in plasma and heart homogenates by standard Elisa methods.

The structures appear in SMILES notation.

Turning to `NC(=O)CCn1c2ccc(-n3ccnc3)cc2c2ccc(CCC(=O)O)cc21` [Compound 17, 3-(imidazol-1(H)-yl)-7-(2-carboxylethyl)-9(H)-(2-aminocarbonylethyl) carbazole], in assay [1] (CD-1 male mice, IP or IV, cytokine typically 6 hrs after LPS), the “LPS/IL6 Lowest tested active” value is 0.03 mg/kg. The “IL-6 in serum after LPS (mouse inflammation assay)” value in assay [1] (dosed 12 hrs before LPS I.P., serum 6 hrs after LPS) is “active”. Further, the “insulin and glucose tolerances” value in assay [2] (10 mg/kg orally qd for 6 weeks, 60% high fat diet) is “statistically significantly reduced insulin and glucose tolerances”. Moreover, in assay [2] (db/db mice, vs vehicle), the “amount of F2-IsoPs in cardiac tissue (myocardial 8-isoprostane)” value is “significantly reduces” and the “increase of survival in severely debilitated diabetic mice” value is 66%.
